Assay [1] has as its target STE20/SPS1-related proline-alanine-rich protein kinase (Homo sapiens) (UniProt Q9UEW8). The assay can be described thus: Selectivity interaction (LanthaScreen Eu Kinase Binding Assay) EUB0001632a STK39. The following applies: at 10 µM. Background: Time-resolved FRET reads energy transfer from a long-lived donor to a nearby acceptor.
Assay [2] deals with T1, Dual serine/threonine and tyrosine protein kinase (Homo sapiens) (UniProt Q6XUX3).
T1 sequence (whole entry): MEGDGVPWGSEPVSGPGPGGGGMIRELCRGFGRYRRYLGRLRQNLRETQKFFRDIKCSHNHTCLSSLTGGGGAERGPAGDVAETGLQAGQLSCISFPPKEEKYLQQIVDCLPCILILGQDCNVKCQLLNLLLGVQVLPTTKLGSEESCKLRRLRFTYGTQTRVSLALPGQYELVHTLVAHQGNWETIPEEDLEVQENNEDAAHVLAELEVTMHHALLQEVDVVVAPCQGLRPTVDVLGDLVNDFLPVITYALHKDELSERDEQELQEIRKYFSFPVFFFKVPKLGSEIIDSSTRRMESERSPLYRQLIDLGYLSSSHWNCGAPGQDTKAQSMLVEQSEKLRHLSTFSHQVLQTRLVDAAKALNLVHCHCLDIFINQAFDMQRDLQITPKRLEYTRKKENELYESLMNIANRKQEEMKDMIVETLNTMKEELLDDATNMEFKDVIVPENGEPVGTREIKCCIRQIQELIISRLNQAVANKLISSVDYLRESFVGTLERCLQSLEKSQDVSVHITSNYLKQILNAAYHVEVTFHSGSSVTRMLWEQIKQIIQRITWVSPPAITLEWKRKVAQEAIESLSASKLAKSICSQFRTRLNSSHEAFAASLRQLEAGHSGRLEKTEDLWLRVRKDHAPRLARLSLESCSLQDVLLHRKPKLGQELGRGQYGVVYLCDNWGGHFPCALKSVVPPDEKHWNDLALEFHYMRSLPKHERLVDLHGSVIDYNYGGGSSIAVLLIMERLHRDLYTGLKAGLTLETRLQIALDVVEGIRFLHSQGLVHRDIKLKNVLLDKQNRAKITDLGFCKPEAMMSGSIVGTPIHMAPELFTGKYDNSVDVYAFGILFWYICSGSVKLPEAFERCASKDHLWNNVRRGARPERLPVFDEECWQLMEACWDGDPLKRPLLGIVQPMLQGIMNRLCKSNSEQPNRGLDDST
The assay can be described thus: Selectivity interaction (KinomeScan (DiscoverX)) EUB0000666a DSTYK. The following applies: at 10 µM.

Assay [3] addresses T2, Serine/threonine-protein kinase Nek10 (Homo sapiens) (UniProt Q6ZWH5).
T2 sequence (whole entry): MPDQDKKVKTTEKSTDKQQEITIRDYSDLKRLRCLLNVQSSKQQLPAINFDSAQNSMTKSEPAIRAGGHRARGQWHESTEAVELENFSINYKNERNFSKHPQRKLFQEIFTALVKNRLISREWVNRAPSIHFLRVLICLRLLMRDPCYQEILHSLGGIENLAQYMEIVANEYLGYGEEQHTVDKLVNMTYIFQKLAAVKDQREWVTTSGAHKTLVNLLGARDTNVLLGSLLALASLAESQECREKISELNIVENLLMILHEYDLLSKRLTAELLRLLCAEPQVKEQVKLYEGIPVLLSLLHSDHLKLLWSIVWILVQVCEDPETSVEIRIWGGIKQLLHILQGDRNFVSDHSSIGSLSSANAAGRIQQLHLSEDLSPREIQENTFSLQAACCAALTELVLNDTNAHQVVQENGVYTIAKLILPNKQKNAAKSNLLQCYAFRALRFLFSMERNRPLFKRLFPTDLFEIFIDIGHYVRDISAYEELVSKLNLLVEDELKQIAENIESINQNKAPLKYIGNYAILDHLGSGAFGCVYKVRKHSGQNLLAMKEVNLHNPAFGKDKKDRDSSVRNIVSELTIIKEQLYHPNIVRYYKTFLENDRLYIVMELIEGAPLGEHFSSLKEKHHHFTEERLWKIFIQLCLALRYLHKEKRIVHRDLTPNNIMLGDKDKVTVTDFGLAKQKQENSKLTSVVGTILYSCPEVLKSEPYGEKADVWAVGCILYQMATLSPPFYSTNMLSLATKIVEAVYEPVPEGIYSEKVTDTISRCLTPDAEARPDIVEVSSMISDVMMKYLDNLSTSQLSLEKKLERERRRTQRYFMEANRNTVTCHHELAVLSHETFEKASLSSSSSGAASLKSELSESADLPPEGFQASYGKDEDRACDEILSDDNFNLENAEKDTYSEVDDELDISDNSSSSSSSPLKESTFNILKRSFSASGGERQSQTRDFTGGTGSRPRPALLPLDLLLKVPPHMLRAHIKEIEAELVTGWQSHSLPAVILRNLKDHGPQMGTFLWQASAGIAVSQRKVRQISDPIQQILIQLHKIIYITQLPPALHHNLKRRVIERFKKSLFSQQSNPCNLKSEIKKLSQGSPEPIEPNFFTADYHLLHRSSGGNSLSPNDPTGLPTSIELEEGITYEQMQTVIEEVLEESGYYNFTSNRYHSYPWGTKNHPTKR
The assay is described as follows: Selectivity interaction (KinomeScan (DiscoverX)) EUB0001079a NEK10. The following applies: at 1 µM.

For assay [4], the target named is 5-hydroxytryptamine receptor 2B (Homo sapiens, UniProt P41595). The assay can be described thus: Selectivity interaction (Eurofins safety panel) EUB0001564a HTR2B. Particulars: at 10 µM.
Chain of 5-hydroxytryptamine receptor 2B (P41595 whole entry): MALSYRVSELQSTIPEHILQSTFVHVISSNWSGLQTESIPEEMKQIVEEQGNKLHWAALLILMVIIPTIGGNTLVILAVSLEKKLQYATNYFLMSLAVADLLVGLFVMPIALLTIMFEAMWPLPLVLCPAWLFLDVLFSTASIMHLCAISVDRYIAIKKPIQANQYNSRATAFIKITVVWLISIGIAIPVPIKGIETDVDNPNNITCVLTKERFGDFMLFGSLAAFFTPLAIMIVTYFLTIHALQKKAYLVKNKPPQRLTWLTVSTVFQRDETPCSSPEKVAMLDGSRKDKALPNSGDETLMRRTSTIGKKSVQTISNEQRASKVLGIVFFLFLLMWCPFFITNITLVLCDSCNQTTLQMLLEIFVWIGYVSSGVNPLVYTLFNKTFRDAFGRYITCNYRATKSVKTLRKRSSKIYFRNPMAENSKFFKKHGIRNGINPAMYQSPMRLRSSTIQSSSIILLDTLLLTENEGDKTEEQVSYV

SMILES strings stand for the structures.

In the case of `Cn1cc(-n2cnc3c(NCc4nc5cc(Cl)c(Cl)cc5[nH]4)nc(N4CCOCC4)nc32)cn1`, the % of inhibition in assay [1] was -29.3%.

In assay [2], `O=C(NOC[C@H](O)CO)c1ccc(F)c(F)c1Nc1ccc(I)cc1F` registered a % of control of 100%.

Take `Nc1cnc(N2CCc3cc(S(=O)(=O)Nc4c(F)cc(Cl)cc4F)cc(N4CCCC4=O)c32)nc1` [TP-020n]: in assay [3], the % of control is 100%.

With `CC[C@@H](Nc1c(C#N)c(-c2ccc(-c3cccc(C)c3F)cc2)nc2cnccc12)C(=O)O` [BAY-091], in assay [4], the % of inhibition is 98%.

The values above are taken from ChEMBL document CHEMBL5465560, “Selectivity Literature for EUbOPEN Chemogenomic Library” (2024).
